Results on 2 compounds are retold here after ChEMBL document CHEMBL1201862, “PubChem BioAssay data set” (2004).

Activity calls are given as the source filed them.

What all share (format): functional
Test [1] deals with T1, cAMP-dependent protein kinase catalytic subunit PRKX (Homo sapiens, UniProt P51817).
T1 sequence (P51817 whole entry): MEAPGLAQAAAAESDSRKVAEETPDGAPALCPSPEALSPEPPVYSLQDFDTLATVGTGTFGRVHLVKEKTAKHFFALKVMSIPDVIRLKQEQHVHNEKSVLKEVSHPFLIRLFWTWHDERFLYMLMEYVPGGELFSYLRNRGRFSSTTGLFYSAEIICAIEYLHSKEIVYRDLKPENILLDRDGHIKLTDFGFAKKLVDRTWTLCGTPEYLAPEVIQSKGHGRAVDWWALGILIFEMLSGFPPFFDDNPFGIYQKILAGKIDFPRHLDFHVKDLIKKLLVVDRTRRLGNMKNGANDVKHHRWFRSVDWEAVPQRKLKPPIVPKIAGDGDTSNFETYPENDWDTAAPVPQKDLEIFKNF

Test [2] concerns the target Glycogen synthase kinase-3 beta (Homo sapiens, UniProt P49841).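 Also: value comes from a broad kinome profiling panel, with GSK3B as the panel member.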
Test [3] concerns the target Protein kinase C theta type (Homo sapiens, UniProt Q04759). The experiment in a line: Navigating the Kinome. Panel member name: PRKCQ.
The target in test [4] is T2, Serine/threonine-protein kinase TAO1 (Homo sapiens, UniProt Q7L7X3).
T2 sequence (Q7L7X3 whole entry): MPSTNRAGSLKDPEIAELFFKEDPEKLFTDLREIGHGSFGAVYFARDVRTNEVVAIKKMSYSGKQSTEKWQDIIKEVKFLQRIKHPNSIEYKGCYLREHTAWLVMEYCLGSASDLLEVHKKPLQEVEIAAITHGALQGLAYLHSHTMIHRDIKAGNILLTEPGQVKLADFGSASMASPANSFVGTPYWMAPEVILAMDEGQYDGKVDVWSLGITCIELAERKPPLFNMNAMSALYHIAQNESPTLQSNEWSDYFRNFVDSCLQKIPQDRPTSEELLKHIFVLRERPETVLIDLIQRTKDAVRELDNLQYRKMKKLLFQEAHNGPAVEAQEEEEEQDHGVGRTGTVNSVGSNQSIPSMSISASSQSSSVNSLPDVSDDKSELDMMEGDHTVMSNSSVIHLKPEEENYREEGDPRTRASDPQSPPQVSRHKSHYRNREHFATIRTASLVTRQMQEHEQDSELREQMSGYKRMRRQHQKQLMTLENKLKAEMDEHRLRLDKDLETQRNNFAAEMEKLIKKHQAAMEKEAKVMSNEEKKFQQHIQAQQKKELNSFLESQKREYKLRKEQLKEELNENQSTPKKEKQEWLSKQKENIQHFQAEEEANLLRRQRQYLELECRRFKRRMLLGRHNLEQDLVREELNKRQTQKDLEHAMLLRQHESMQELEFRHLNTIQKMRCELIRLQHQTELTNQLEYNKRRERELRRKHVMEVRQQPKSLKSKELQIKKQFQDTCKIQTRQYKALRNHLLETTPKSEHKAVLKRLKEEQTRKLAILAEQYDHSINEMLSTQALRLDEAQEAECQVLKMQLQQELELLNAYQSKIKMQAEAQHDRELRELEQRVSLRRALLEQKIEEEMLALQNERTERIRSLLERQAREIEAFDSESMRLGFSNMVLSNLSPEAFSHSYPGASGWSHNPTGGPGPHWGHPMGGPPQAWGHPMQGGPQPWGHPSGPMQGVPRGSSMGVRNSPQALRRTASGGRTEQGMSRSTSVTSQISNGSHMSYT

Test [5] deals with T3, Tyrosine-protein kinase JAK3 (Homo sapiens, UniProt P52333).
T3 sequence (P52333 whole entry): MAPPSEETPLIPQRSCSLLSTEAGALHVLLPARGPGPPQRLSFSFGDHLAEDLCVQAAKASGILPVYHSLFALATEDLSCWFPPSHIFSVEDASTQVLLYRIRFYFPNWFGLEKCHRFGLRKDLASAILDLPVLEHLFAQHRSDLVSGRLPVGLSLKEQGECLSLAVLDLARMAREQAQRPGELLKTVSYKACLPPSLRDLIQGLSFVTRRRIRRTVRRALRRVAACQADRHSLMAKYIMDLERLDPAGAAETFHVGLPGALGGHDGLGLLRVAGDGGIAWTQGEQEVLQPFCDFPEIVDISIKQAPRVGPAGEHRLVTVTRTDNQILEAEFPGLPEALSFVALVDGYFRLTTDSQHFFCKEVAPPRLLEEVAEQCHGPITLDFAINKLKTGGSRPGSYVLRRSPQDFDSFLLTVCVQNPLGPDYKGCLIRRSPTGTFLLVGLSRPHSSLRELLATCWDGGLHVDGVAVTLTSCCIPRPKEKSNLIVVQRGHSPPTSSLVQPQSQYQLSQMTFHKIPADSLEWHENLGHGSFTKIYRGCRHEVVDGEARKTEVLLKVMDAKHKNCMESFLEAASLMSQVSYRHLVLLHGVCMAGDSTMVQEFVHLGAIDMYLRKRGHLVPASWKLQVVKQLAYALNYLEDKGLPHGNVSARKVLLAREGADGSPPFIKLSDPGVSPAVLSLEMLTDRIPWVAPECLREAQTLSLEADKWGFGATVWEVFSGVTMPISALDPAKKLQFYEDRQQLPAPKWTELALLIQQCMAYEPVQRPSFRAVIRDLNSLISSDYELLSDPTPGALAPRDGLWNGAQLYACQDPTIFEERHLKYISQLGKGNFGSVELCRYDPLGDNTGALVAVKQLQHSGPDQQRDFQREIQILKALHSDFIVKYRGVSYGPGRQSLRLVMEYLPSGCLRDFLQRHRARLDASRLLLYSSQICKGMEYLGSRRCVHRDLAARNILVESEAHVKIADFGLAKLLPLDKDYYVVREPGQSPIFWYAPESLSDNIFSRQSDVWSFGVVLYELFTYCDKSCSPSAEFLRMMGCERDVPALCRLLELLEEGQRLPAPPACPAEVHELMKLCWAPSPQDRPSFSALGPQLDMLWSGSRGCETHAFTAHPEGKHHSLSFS

Test [6] deals with Tyrosine-protein kinase JAK2 (Homo sapiens, UniProt O60674).
Tyrosine-protein kinase JAK2, sequence (O60674 whole entry): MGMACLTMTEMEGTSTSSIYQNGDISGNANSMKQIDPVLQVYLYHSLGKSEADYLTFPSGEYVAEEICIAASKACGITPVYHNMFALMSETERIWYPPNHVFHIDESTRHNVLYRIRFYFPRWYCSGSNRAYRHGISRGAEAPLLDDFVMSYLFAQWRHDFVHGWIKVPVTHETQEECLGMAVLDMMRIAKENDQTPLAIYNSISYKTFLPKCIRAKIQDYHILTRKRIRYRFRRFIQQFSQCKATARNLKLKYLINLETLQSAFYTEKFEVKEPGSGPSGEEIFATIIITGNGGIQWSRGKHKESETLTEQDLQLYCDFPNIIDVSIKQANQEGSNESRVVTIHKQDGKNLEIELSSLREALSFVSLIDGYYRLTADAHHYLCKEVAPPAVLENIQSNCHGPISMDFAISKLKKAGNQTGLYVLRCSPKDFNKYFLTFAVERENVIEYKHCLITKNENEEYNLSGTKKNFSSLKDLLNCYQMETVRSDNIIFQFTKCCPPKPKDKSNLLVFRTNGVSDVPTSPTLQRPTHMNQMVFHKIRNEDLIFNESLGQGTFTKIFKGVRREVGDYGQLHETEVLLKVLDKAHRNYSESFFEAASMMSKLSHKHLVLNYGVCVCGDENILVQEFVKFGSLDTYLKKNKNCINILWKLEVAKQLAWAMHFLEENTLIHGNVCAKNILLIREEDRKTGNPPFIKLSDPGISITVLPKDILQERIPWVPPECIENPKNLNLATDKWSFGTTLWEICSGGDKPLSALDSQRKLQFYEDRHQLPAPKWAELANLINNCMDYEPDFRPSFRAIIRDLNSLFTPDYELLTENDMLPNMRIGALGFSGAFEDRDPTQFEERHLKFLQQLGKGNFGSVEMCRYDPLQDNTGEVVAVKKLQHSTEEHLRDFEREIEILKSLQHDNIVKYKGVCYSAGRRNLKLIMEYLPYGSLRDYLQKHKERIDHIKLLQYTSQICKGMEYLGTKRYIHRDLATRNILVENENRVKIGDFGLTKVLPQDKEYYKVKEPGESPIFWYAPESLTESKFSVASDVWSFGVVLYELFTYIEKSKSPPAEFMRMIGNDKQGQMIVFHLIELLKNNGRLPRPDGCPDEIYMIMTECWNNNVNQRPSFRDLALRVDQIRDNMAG
In test [7] the target is Cyclin-dependent kinase 9 (Homo sapiens, UniProt P50750).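 Also: value from the CDK9 entry of a kinome-spanning kinase panel.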
Cyclin-dependent kinase 9, sequence (P50750 whole entry): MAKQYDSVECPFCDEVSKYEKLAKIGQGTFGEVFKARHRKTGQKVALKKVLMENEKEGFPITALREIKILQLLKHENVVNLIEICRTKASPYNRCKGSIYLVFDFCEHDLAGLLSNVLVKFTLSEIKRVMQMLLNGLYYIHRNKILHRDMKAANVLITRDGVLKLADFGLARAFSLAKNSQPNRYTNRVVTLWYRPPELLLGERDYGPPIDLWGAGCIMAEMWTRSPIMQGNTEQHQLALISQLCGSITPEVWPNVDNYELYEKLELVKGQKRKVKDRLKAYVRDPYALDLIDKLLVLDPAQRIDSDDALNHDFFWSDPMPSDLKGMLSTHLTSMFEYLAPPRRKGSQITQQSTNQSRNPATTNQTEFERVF

Protein kinase C theta type, sequence (Q04759 whole entry): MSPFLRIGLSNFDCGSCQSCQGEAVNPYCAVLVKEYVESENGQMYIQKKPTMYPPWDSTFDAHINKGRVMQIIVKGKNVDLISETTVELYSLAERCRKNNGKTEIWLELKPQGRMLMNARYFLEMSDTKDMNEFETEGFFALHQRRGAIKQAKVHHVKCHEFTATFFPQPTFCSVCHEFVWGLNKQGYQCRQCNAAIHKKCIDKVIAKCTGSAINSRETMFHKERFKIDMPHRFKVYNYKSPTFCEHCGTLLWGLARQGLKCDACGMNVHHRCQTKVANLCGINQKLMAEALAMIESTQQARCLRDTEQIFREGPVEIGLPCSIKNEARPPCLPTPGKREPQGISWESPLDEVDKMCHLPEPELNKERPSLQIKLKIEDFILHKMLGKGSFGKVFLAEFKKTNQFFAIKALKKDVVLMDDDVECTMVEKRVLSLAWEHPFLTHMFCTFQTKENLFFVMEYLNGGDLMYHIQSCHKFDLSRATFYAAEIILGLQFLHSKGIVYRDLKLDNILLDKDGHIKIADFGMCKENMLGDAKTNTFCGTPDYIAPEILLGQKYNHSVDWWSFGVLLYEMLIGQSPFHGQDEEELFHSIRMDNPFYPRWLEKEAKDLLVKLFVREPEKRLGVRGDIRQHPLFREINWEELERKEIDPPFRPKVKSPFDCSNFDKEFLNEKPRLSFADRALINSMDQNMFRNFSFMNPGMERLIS
Glycogen synthase kinase-3 beta, sequence (P49841 whole entry): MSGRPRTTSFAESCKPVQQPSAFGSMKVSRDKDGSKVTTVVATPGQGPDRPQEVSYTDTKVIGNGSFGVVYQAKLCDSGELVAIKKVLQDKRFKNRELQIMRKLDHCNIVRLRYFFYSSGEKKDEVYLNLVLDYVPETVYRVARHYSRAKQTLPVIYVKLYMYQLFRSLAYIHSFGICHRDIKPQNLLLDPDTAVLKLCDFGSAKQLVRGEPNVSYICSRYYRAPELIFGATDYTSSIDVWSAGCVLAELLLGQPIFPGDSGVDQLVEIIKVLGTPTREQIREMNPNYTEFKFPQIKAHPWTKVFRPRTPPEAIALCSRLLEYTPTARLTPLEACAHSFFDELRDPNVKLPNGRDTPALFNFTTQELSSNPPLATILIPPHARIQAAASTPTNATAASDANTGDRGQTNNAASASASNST

In the case of `COc1cccc(CNC(=O)c2cnc(-c3ccncc3)nc2)c1`, the Ki is 2000 nM (active) in test [1]; > 3980 nM (inactive) in test [2]; 1000 nM (active) in test [3]; > 6310 nM (inactive) in test [4]; > 5010 nM (inactive) in test [5]; > 2510 nM (inactive) in test [6]. In addition, the Ki in test [7] was > 1580 nM (inactive).
For `OC1CCC(Nc2nc(Cl)cc(-c3c[nH]c4ncccc34)n2)CC1` (stereo unspecified), the Ki in test [1] was 63.1 nM (active); in test [2], 50.1 nM (active); in test [3] it was 15.8 nM (active); in test [4], 501 nM (active); in test [5], 50.1 nM (active); in test [6], 200 nM (active). Moreover, the inhibition constant (Ki) in test [7] is 1.26 nM (active). In addition, the negative-log Ki (pKi) in test [1] turned out to be 7.2; in test [2], 7.3; in test [3], 7.8; in test [4], 6.3; in test [5] it was 7.3; in test [6] it was 6.7. The compound further yielded a pKi in test [7] of 8.9.

One may read the Ki as the equilibrium dissociation constant of an inhibitor or competing ligand from its target. By pKi is commonly meant −log10 of the Ki, conventionally taken in molar units. Low readings indicate a large Ki, high ones a small Ki.
